Earlier results in US20130281394A1, “Chemosensory Receptor Ligand-Based Therapies” (ELCELYX THERAPEUTICS, INC., priority 2010, published 2013).

Key:
sweet receptor = molecular target: T1, sweet receptor (Homo sapiens, UniProt Q7RTX0+Q8TE23); details: relative sweetness on a weight comparison basis to sucrose (= 1.0); ranges: varied with the concentration of sucrose
T1 sequence (Q8TE23 20-839): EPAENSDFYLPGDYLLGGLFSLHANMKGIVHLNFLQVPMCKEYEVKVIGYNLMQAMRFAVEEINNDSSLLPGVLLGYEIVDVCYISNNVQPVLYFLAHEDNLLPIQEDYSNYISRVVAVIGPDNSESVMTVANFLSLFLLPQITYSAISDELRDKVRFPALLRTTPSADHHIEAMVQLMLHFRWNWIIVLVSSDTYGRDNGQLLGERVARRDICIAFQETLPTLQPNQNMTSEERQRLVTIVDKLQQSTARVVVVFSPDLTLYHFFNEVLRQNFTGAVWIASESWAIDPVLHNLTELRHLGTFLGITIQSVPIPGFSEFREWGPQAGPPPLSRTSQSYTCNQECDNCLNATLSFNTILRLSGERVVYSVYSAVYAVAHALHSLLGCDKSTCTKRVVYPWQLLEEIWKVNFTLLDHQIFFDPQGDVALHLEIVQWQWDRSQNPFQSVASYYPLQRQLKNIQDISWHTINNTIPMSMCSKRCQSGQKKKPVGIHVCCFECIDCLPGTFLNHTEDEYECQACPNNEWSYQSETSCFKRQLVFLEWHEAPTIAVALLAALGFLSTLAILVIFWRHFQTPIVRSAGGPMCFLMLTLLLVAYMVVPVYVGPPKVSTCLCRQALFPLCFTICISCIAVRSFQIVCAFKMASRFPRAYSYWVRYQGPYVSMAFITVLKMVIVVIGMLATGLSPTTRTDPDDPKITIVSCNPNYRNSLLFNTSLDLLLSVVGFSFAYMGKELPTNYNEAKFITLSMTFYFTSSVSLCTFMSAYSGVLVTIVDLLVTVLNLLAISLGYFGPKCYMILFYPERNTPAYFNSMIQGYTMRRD
T1 sequence (Q7RTX0 21-852): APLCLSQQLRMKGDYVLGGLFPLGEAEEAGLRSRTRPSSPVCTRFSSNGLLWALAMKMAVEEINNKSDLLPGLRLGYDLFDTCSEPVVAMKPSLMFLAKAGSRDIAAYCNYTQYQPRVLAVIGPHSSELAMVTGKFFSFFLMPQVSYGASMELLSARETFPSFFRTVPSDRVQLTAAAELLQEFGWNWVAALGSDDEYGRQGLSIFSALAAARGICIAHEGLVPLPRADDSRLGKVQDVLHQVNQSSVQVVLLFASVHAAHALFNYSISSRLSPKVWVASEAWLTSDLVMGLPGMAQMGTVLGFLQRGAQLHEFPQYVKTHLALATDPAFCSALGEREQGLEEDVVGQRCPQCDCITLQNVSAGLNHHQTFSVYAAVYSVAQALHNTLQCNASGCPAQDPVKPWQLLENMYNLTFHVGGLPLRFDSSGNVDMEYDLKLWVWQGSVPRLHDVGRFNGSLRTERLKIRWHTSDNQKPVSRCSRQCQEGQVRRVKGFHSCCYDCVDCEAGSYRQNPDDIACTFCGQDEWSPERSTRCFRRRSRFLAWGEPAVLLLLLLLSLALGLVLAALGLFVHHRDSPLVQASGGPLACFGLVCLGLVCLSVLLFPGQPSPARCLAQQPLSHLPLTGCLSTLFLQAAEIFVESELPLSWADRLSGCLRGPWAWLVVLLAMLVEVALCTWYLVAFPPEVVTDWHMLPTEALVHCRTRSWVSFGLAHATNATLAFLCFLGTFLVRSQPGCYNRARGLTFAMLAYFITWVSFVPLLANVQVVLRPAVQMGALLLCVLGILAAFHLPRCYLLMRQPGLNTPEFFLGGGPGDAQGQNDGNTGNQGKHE

Molecule	Taste quality (bitter receptor)	Sweetness/potency (sweet receptor)
C=CCC(=NOS(=O)(=O)O)S[C@@H]1O[C@H](CO)[C@@H](O)[C@H](O)[C@H]1O (stereo in doubt) [Sinigrin]	Bitter	–
C[S+]([O-])CCCN=C=S (centres unmarked) [3-Methyl-sulfinylpropyl isothiocyanate]	Acrid mustard oils	–
C[S+]([O-])CCCCN=C=S (centres unmarked) [4-Methylsulfinyl butyl isothiocyanate]	Acrid mustard oils	–
C=CCN=C=S [Allyl-isothiocyanate]	Acrid mustard oils;	–
S=C=NCc1ccccc1 [Benzyl isothiocyanate]	Acrid mustard oils;	–
O=c1c(-c2ccc(O)cc2)coc2cc(O[C@@H]3O[C@H](CO)[C@@H](O)[C@H](O)[C@H]3O)ccc12 [Daidzin]	Astringent	–
O=C(O[C@@H]1Cc2c(O)cc(O)cc2O[C@@H]1c1ccc(O)c(O)c1)c1cc(O)c(O)c(O)c1 [Epicatechin gallate]	Bitter and astringent	–
O=C(O[C@@H]1Cc2c(O)cc(O)cc2O[C@@H]1c1cc(O)c(O)c(O)c1)c1cc(O)c(O)c(O)c1 [Epigallocatechin gallate]	Bitter with sweet	–
Oc1cc(O)c2c(c1)O[C@H](c1cc(O)c(O)c(O)c1)[C@H](O)C2 [Epigallocatechin]	Bitter with sweet	–
O=c1c(-c2ccc(O)cc2)coc2cc(O)cc(O)c12 [Genistein]	Bitter or astringent	–
O=c1c(-c2ccc(O)cc2)coc2cc(O[C@@H]3O[C@H](CO)[C@@H](O)[C@H](O)[C@H]3O)cc(O)c12 [Genistin]	Astringent	–
O=S(=O)(O)ON=C(Cc1c[nH]c2ccccc12)S[C@@H]1O[C@H](CO)[C@@H](O)[C@H](O)[C@H]1O [Glucobrassicin]	Bitter	–
C=CC1CNC(=S)O1 (centres unmarked) [Goitrin 5-vinyl-2-oxazolidine thione, 5-vinyl-2-oxazolidine thione]	Bitter	–
CC1(C)O[C@H]2CC(=O)OC[C@]23[C@H]2CC[C@@](C)([C@@H](O[C@@H]4O[C@H](CO)[C@@H](O)[C@H](O)[C@H]4O)c4ccoc4)[C@@]4(O[C@@H]4C(=O)O)[C@]2(C)C(=O)C[C@@H]13 [Limonin glucoside]	Tasteless	–
CC1(C)O[C@H]2CC(=O)OC[C@]23[C@H]2CC[C@@]4(C)[C@H](c5ccoc5)OC(=O)[C@H]5O[C@]54[C@]2(C)C(=O)C[C@@H]13 [Limonin]	Bitter	–
CC1(C)[C@@H](O[C@@H]2O[C@H](C(=O)O)[C@@H](O)[C@H](O)[C@H]2O[C@@H]2O[C@H](C(=O)O)[C@@H](O)[C@H](O)[C@H]2O)CC[C@]2(C=O)[C@H]3CC[C@@H]4C5=C[C@@](C)(C(=O)O)CC[C@]5(C)CC[C@@]4(C)[C@]3(C)CC[C@@H]12 [Periandrin I]	–	90
CC1(C(=O)O)C=C2C3CCC4C5(C=O)CCC(OC6OC(C(=O)O)C(O)C(O)C6OC6OCC(O)C(O)C6O)C(C)(C)C5CCC4(C)C3(C)CCC2(C)CC1 (centres unmarked) [Periandrin V]	–	220
C=C(C)[C@@H]1CC=C(/C=N/O)CC1 [Perillartine]	–	370
COc1ccc([C@H]2Cc3cccc(O)c3C(=O)O2)cc1O [Phyllodulcin]	–	400
C=C(C)C1CCC2(C)C(CC(OC3OCC(O)C(O)C3O)C3C(C(C)(O)C/C=C/C(C)(C)O)CCC32C)C1(C)CCC(=O)O (centres unmarked) [Pterocaryoside B]	–	100
C=C1C[C@@]23CC[C@H]4[C@@](C)(CCC[C@@]4(C)C(=O)O[C@@H]4O[C@H](CO)[C@@H](O)[C@H](O)[C@H]4O[C@@H]4O[C@H](CO)[C@@H](O)[C@H](O)[C@H]4O)[C@@H]2CC[C@]1(O[C@@H]1O[C@H](CO)[C@@H](O)[C@H](O[C@@H]2O[C@H](CO)[C@@H](O)[C@H](O)[C@H]2O)[C@H]1O[C@@H]1O[C@H](CO)[C@@H](O)[C@H](O)[C@H]1O)C3 [Rebaudioside D]	–	221
C=C1C[C@@]23CC[C@H]4[C@@](C)(CCC[C@@]4(C)C(=O)O[C@@H]4O[C@H](CO)[C@@H](O)[C@H](O)[C@H]4O[C@@H]4O[C@H](CO)[C@@H](O)[C@H](O)[C@H]4O)[C@@H]2CC[C@]1(O[C@@H]1O[C@H](CO)[C@@H](O)[C@H](O)[C@H]1O[C@@H]1O[C@H](CO)[C@@H](O)[C@H](O)[C@H]1O)C3 [Rebaudioside E]	–	174
C=C1C[C@@]23CC[C@H]4[C@@](C)(CCC[C@@]4(C)C(=O)O[C@@H]4O[C@H](CO)[C@@H](O)[C@H](O)[C@H]4O)[C@@H]2CC[C@]1(O[C@@H]1O[C@H](CO)[C@@H](O)[C@H](O)[C@H]1O)C3 [Rubusoside]	–	115
Oc1ccc([C@H]2Oc3c(c(O)cc4c3[C@H]3c5c(O)cc(O)cc5O[C@@](c5ccc(O)cc5)(O4)[C@@H]3O)[C@H](c3c(O)cc(O)c4c3O[C@H](c3ccc(O)cc3)[C@@H](O)C4)[C@H]2O)cc1 [Selligueain A]	–	35

Molecule	Taste quality (bitter receptor)	Sweetness/potency (sweet receptor)
C[C@H](CC[C@@H](O[C@@H]1O[C@H](CO[C@@H]2O[C@H](CO)[C@@H](O)[C@H](O)[C@H]2O)[C@@H](O)[C@H](O)[C@H]1O[C@@H]1O[C@H](CO)[C@@H](O)[C@H](O)[C@H]1O)C(C)(C)O)[C@H]1CC[C@@]2(C)[C@@H]3CC=C4[C@@H](CC[C@H](O[C@@H]5O[C@H](CO)[C@@H](O)[C@H](O)[C@H]5O)C4(C)C)[C@]3(C)[C@H](O)C[C@]12C [Siamenoside I]	–	563
C=C1C[C@@]23CC[C@H]4[C@@](C)(CCC[C@@]4(C)C(=O)O)[C@@H]2CC[C@]1(O[C@@H]1O[C@H](CO)[C@@H](O)[C@H](O)[C@H]1O[C@@H]1O[C@H](CO)[C@@H](O)[C@H](O)[C@H]1O)C3 [Steviolbioside]	–	90
C=C1C[C@@]23CC[C@H]4[C@@](C)(CCC[C@@]4(C)C(=O)O[C@@H]4O[C@H](CO)[C@@H](O)[C@H](O)[C@H]4O)[C@@H]2CC[C@]1(O[C@@H]1O[C@H](CO)[C@@H](O)[C@H](O)[C@H]1O[C@@H]1O[C@H](CO)[C@@H](O)[C@H](O)[C@H]1O)C3 [Stevioside]	–	210
CC[C@@H](C)C(=O)O[C@@H](C)[C@]1(O)CC[C@]2(O)[C@@H]3CC[C@H]4C[C@@H](O[C@@H]5C[C@H](O)[C@H](O[C@H]6C[C@H](OC)[C@H](O[C@H]7C[C@@H](OC)[C@H](O[C@H]8C[C@@H](OC)[C@H](O[C@@H]9O[C@H](C)[C@@H](O[C@@H]%10O[C@H](CO)[C@@H](O)[C@H](O)[C@H]%10O)[C@H](OC)[C@H]9O)[C@@H](C)O8)[C@@H](C)O7)[C@@H](C)O6)[C@@H](C)O5)CC[C@]4(C)[C@H]3C[C@@H](OC(C)=O)[C@]12C [Telosmoside A15]	–	1000
O=C/C=C/c1ccccc1 [Trans-Cinnamaldehyde]	–	50
C/C=C/c1ccc(OC)cc1 [trans-Anethole]	–	13
Albiziasaponin B	–	600
Baiyunoside	–	500
Brazzein (QDKCKKVYENYPVSKCQLANQCNYDCKLDKHARSGECFYDEKRNLQCICDYCEY; UniProt P56552 1-54, looked up) [sweet protein from Pentadiplandra brazzeana Baillon]	–	2,000
Carnosifloside V	–	51
Curculin	–	550
Cyclocarioside A	–	200
Cyclocaryoside I	–	250
Monellin	–	3,000
Pentadin	–	500
Periandrin II	–	95
Periandrin IV	–	85
Polypodoside A	–	600
Pterocaryoside A	–	50
Rebaudioside B	–	150
Rebaudioside C	–	30
Scandenoside R6	–	54
Thaumatin	–	1,600
